Reference: patent publication EP4768484A1, “HETEROCYCLIC FUSED RING COMPOUND, AND COMPOSITION AND USE THEREOF” (Shenzhen TargetRx, Inc., priority 2023, dated 2025)

Tests used:
Type in all cases: cell-based
Ba/F3 BCR-ABL1 T315I = biological target: T1, Ba/F3 BCR-ABL1 T315I (Homo sapiens, UniProt P00519+P11274, T315I); assay: Cell growth inhibitory activity assay (CellTiter-Glo), Ba/F3 BCR-ABL1 T315I cells; details: 72 h, CTG cell viability
T1 construct: BCR (N-terminal fusion partner of the oncoprotein); expressed in transfected cells; host or cells: Ba/F3 (lentiviral transduction, monoclonal line)
Outline: (§1)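 IC50 values come from nonlinear fitting of % inhibition against log concentration, with viability taken as ATP content by CellTiter-Glo. Parental Ba/F3 or Ba/F3 monoclonal lines expressing lentivirally introduced mutant BCR-ABL1 were dosed for 72 h; controls included 0.5% DMSO wells and a T0 plate.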

[1] = biological target: T2, Ba/F3 BCR-ABL1 Y253H/E255K (Homo sapiens, UniProt P00519+P11274, E255K/Y253H); assay: Cell growth inhibitory activity assay (CellTiter-Glo), Ba/F3 BCR-ABL1 Y253H/E255K cells; details: 72 h, CTG cell viability
T2 construct: BCR (N-terminal fusion partner of the oncoprotein); expressed in transfected cells; host or cells: Ba/F3 (lentiviral transduction, monoclonal line)
Method: (§2) In this assay, the Celltiter-Glo (CTG) kit provided by Promega was used, and it is a homogeneous cell viability assay method. The cell viability of cultured cells was measured by quantifying ATP. K562 cells were purchased from Nanjing Kebai, product number CBP60529; Ba/F3 parental cells were purchased from RIKEN BRC, product number RCB0805; other cells containing BCR-ABL1 WT, BCR-ABL1 T315I, BCR-ABL1 T315M, BCR-ABL1 Y253H/E255K, BCR-ABL1 E255V/T3151, BCR-ABL1 A424T, BCR-ABL1 A337V, BCR-ABL1 P465S, BCR-ABL1 V468F, and BCR-ABL1 I502L were all monoclonal engineered cell lines obtained by transducting Ba/F3 parental cells with the lentivirus plasmids containing WT or corresponding mutated BCR-ABL1.
(§3) The steps of cell viability assay are as follows: • a) Cells in logarithmic growth phase were collected. Cell suspension was prepared and the cells were counted. Concentration of the cells was calculated. • b) The cell suspension was diluted to the required concentration and then added to the middle wells of a 96-well plate, and PBS was added to the edge wells. The wells with no cells and only culture medium were used as blank controls. • c) In addition to the cell plate used for compound analysis, another 96-well plate was prepared as a T0 plate, and 3-6 blank wells and 3-6 cell wells were added. The next day, CTG was used to test the cell viability as the T0 viability value of the cells. • d) The cell plate was incubated at 37 °C in a 5% CO2 incubator overnight. • e) The next day, each concentration of a compound subjected to a gradient dilution was added, and the cell plate was incubated at 37 °C in a 5% CO2 incubator for 72 h. The wells with no compound and only 0.5% DMSO were used as positive controls for cell growth. • f) CTG reagent (CellTiter-Glo kit) was added according to the manufacturer's instructions to test the cell viability value. • g) The plate was read using Biotek cytation3.0 microplate reader and the data were exported. • h) IC50 was calculated using GraphPad Prism 7.0 software.
(§4) The IC50 (half-maximal inhibitory concentration) of the compound was obtained using the following nonlinear fitting formula: Y = Bottom + (Top−Bottom)/(1+10^(∧)((LogIC50−X)*HillSlope)) [formula] • X: Log value of the compound concentration • Y: Inhibition rate (% inhibition) • Top: Maximum response • Bottom: Baseline response • HillSlope: Slope of the curve
(§5) The formula for calculating cell inhibition rate (inhibition rate %) was: [formula]

Ba/F3 BCR-ABL1 WT = biological target: T3, Ba/F3 BCR-ABL1 WT (Homo sapiens, UniProt P00519+P11274); assay: Cell growth inhibitory activity assay (CellTiter-Glo), Ba/F3 BCR-ABL1 WT cells; details: 72 h, CTG cell viability
T3 construct: BCR (N-terminal fusion partner of the oncoprotein); expressed in transfected cells; host or cells: Ba/F3 (lentiviral transduction, monoclonal line)
Outline: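 Ba/F3 lines stably transduced by lentivirus with WT or mutant BCR-ABL1, alongside untransduced parental Ba/F3, were seeded and incubated overnight at 37 °C, 5% CO2, then exposed to serially diluted compound for 72 h. Viability was read as ATP by CellTiter-Glo luminescence against a day-of-dosing T0 plate; IC50 from four-parameter nonlinear fit.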

K562 cells = assay: Cell growth inhibitory activity assay (CellTiter-Glo), K562 cells; details: Homo sapiens, 72 h, CTG cell viability
Outline: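 K562 cells in logarithmic growth were counted, diluted and plated in 96-well plates, with medium-only blanks and a separate T0 plate read by CTG the following day. After overnight incubation, graded compound concentrations were added for 72 h, with 0.5% DMSO wells as growth controls. Luminescence was read on a Biotek cytation3.0, and IC50 came from nonlinear fitting in GraphPad Prism 7.0.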

[2] = biological target: T4, Ba/F3 BCR-ABL1 E255V/T315I (Homo sapiens, UniProt P00519+P11274, E255V/T315I); assay: Cell growth inhibitory activity assay (CellTiter-Glo), Ba/F3 BCR-ABL1 E255V/T315I cells; details: 72 h, CTG cell viability
T4 construct: BCR (N-terminal fusion partner of the oncoprotein); expressed in transfected cells; host or cells: Ba/F3 (lentiviral transduction, monoclonal line)
Method: as §2, §3, §4, §5

Ba/F3 BCR-ABL1 P465S = biological target: T5, Ba/F3 BCR-ABL1 P465S (Homo sapiens, UniProt P00519+P11274, P465S); assay: Cell growth inhibitory activity assay (CellTiter-Glo), Ba/F3 BCR-ABL1 P465S cells; details: 72 h, CTG cell viability
T5 construct: BCR (N-terminal fusion partner of the oncoprotein); expressed in transfected cells; host or cells: Ba/F3 (lentiviral transduction, monoclonal line)
Method: as §2, §3, §4, §5

Ba/F3 BCR-ABL1 A337V = biological target: T6, Ba/F3 BCR-ABL1 A337V (Homo sapiens, UniProt P00519+P11274, A337V); assay: Cell growth inhibitory activity assay (CellTiter-Glo), Ba/F3 BCR-ABL1 A337V cells; details: 72 h, CTG cell viability
T6 construct: BCR (N-terminal fusion partner of the oncoprotein); expressed in transfected cells; host or cells: Ba/F3 (lentiviral transduction, monoclonal line)
Method: as §2, §3, §4, §5

Ba/F3 BCR-ABL1 A424T = biological target: T7, Ba/F3 BCR-ABL1 A424T (Homo sapiens, UniProt P00519+P11274, A424T); assay: Cell growth inhibitory activity assay (CellTiter-Glo), Ba/F3 BCR-ABL1 A424T cells; details: 72 h, CTG cell viability
T7 construct: BCR (N-terminal fusion partner of the oncoprotein); expressed in transfected cells; host or cells: Ba/F3 (lentiviral transduction, monoclonal line)
Method: as §2, §3, §4, §5

Ba/F3 BCR-ABL1 V468F = biological target: T8, Ba/F3 BCR-ABL1 V468F (Homo sapiens, UniProt P00519+P11274, V468F); assay: Cell growth inhibitory activity assay (CellTiter-Glo), Ba/F3 BCR-ABL1 V468F cells; details: 72 h, CTG cell viability
T8 construct: BCR (N-terminal fusion partner of the oncoprotein); expressed in transfected cells; host or cells: Ba/F3 (lentiviral transduction, monoclonal line)
Method: as §2, §3, §4, §5

Ba/F3 parental cells = assay: Cell growth inhibitory activity assay (CellTiter-Glo), Ba/F3 parental cells; details: Mus musculus, BaF3, 72 h, CTG cell viability, read-out: IC50 Ba/F3 BCR-ABL1 Parental
Outline: as §1

Ba/F3 BCR-ABL1 T315M = biological target: T9, Ba/F3 BCR-ABL1 T315M (Homo sapiens, UniProt P00519+P11274, T315M); assay: Cell growth inhibitory activity assay (CellTiter-Glo), Ba/F3 BCR-ABL1 T315M cells; details: 72 h, CTG cell viability
T9 construct: BCR (N-terminal fusion partner of the oncoprotein); expressed in transfected cells; host or cells: Ba/F3 (lentiviral transduction, monoclonal line)
Outline: as §1

Ba/F3 BCR-ABL1 I502L = biological target: T10, Ba/F3 BCR-ABL1 I502L (Homo sapiens, UniProt P00519+P11274, I502L); assay: Cell growth inhibitory activity assay (CellTiter-Glo), Ba/F3 BCR-ABL1 I502L cells; details: 72 h, CTG cell viability
T10 construct: BCR (N-terminal fusion partner of the oncoprotein); expressed in transfected cells; host or cells: Ba/F3 (lentiviral transduction, monoclonal line)
Method: as §2, §3, §4, §5

SMILES | IC50 (Ba/F3 BCR-ABL1 T315I) | IC50 [1] | IC50 (Ba/F3 BCR-ABL1 WT) | IC50 (K562 cells) | IC50 [2] | IC50 (Ba/F3 BCR-ABL1 P465S) | IC50 (Ba/F3 BCR-ABL1 A337V) | IC50 (Ba/F3 BCR-ABL1 A424T) | IC50 (Ba/F3 BCR-ABL1 V468F) | IC50 (Ba/F3 parental cells) | IC50 (Ba/F3 BCR-ABL1 T315M) | IC50 (Ba/F3 BCR-ABL1 I502L)
[2H]C([2H])([2H])N1Cc2ncc(-c3cc(C(=O)Nc4ccc(OC(F)(F)Cl)cc4)cc4nc5n(c34)[C@H](C)COC5)cc2C1=O [T-31, (R)-N-(4-(chlorodifluoromethoxy)phenyl)-4-methyl-6-(6-(methyl-d3)-5-oxo-6,7-dihydro-5H-pyrrolo[3,4-b]pyridin-3-yl)-3,4-dihydro-1H-benzo[4,5]imidazo[2,1-c][1,4]oxazine-8-carboxamide] | 5 to 50 nM | 5 to 50 nM | ≤ 5 nM | ≤ 5 nM | 5 to 50 nM | 50 to 1000 nM | 50 to 1000 nM | 5 to 50 nM | 5 to 50 nM | > 1000 nM | 5 to 50 nM | 50 to 1000 nM
C[C@@H]1COCc2nc3cc(C(=O)Nc4ccc(OC(F)(F)Cl)cc4)cc(-c4cnc5c(c4)-c4nn(S(C)(=O)=O)cc4C5)c3n21 [T-42, (R)-N-(4-(chlorodifluoromethoxy)phenyl)-4-methyl-6-(2-(methylsulfonyl)-2,4-dihydropyrazolo[3',4':3,4]cyclopenta[1,2-b]pyridin-7-yl)-3,4-dihydro-1H-benzo[4,5]imidazo[2,1-c][1,4]oxazine-8-carboxamide] | 5 to 50 nM | 50 to 1000 nM | ≤ 5 nM | ≤ 5 nM | 50 to 1000 nM | 50 to 1000 nM | 50 to 1000 nM | 50 to 1000 nM | 50 to 1000 nM | > 1000 nM | 50 to 1000 nM | 50 to 1000 nM
CC(C)n1cc2c(n1)-c1cc(-c3cc(C(=O)Nc4ccc(OC(F)(F)Cl)cc4)cc4nc5n(c34)[C@H](C)COC5)cnc1C2 [T-48, (R)-N-(4-(chlorodifluoromethoxy)phenyl)-6-(2-isopropyl-2,4-dihydropyrazolo[3',4':3,4]cyclopenta[1,2-b]pyridin-7-yl)-4-methyl-3,4-dihydro-1H-benzo[4,5]imidazo[2,1-c][1,4]oxazine-8-carboxamide] | ≤ 5 nM | ≤ 5 nM | ≤ 5 nM | ≤ 5 nM | ≤ 5 nM | 50 to 1000 nM | 5 to 50 nM | 5 to 50 nM | 5 to 50 nM | > 1000 nM | > 1000 nM | 5 to 50 nM
C[C@@H]1COCc2nc3cc(C(=O)Nc4ccc(OC(F)(F)Cl)cc4)cc(-c4cnc5c(c4)-c4nn(CC(F)(F)F)cc4C5)c3n21 [T-49, (R)-N-(4-(chlorodifluoromethoxy)phenyl)-4-methyl-6-(2-(2,2,2-trifluoroethyl)-2,4-dihydropyrazolo[3',4':3,4]cyclopenta[1,2-b]pyridin-7-yl)-3,4-dihydro-1H-benzo[4,5]imidazo[2,1-c][1,4]oxazine-8-carboxamide] | ≤ 5 nM | ≤ 5 nM | ≤ 5 nM | ≤ 5 nM | ≤ 5 nM | 5 to 50 nM | 5 to 50 nM | ≤ 5 nM | 5 to 50 nM | > 1000 nM | 50 to 1000 nM | 5 to 50 nM
C[C@@H]1COCc2nc3cc(C(=O)Nc4ccc(OC(F)(F)Cl)cc4)cc(-c4cnc5c(c4)-c4nn(C6COC6)cc4C5)c3n21 [T-52, (R)-N-(4-(chlorodifluoromethoxy)phenyl)-4-methyl-6-(2-(oxetan-3-yl)-2,4-dihydropyrazolo[3',4':3,4]cyclopenta[1,2-b]pyridin-7-yl)-3,4-dihydro-1H-benzo[4,5]imidazo[2,1-c] [1,4]oxazine-8-carboxamide] | ≤ 5 nM | 5 to 50 nM | ≤ 5 nM | ≤ 5 nM | ≤ 5 nM | 50 to 1000 nM | 50 to 1000 nM | 5 to 50 nM | 5 to 50 nM | > 1000 nM | > 1000 nM | 5 to 50 nM
[2H]C([2H])([2H])C([2H])(n1cc2c(n1)-c1cc(-c3cc(C(=O)Nc4ccc(OC(F)(F)Cl)cc4)cc4nc5n(c34)[C@H](C)COC5)cnc1C2)C([2H])([2H])[2H] [T-54] | ≤ 5 nM | ≤ 5 nM | ≤ 5 nM | ≤ 5 nM | ≤ 5 nM | 5 to 50 nM | 5 to 50 nM | 5 to 50 nM | 5 to 50 nM | > 1000 nM | > 1000 nM | 5 to 50 nM
C[C@@H]1COCc2nc3cc(C(=O)Nc4ccc(OC(F)(F)Cl)cc4)cc(-c4cnc5c(c4)-c4nn(C6CC6)cc4C5)c3n21 [T-57, (R)-N-(4-(chlorodifluoromethoxy)phenyl)-6-(2-cyclopropyl-2,4-dihydropyrazolo[3',4':3,4]cyclopenta[1,2-b]pyridin-7-yl)-4-methyl-3,4-dihydro-1H-benzo[4,5]imidazo[2,1-c][1,4]oxazine-8-carboxamide] | ≤ 5 nM | 5 to 50 nM | ≤ 5 nM | ≤ 5 nM | ≤ 5 nM | 50 to 1000 nM | 5 to 50 nM | 5 to 50 nM | 5 to 50 nM | > 1000 nM | > 1000 nM | 5 to 50 nM
C[C@@H]1COCc2nc3cc(C(=O)Nc4ccc(OC(F)(F)Cl)cc4)cc(-c4cnc5c(c4)-c4nn(-c6ncccn6)cc4C5)c3n21 [T-65] | ≤ 5 nM | ≤ 5 nM | ≤ 5 nM | ≤ 5 nM | ≤ 5 nM | 5 to 50 nM | ≤ 5 nM | ≤ 5 nM | 5 to 50 nM | > 1000 nM | ≤ 5 nM | ≤ 5 nM
